Measured values: patent US20200131144A1, “AMINE OR (THIO)AMIDE CONTAINING LXR MODULATORS” (Phenex-FXR GmbH, priority 2017, published 2020)

How the values were obtained:
LXRβ full length (FL) = biological target: T1, LXRβ full length (FL) (Homo sapiens, UniProt P55055, INS174Q); assay: LXR Gal4 reporter transient transfection assay, mammalian two-hybrid, FL-M2H Gal4β; type: cell-based; settings: HEK293 cells; inverse agonist unless *
T1 construct: the full length (FL) proteins of LXRα (amino acids 1-447); NP005684; NP009052; expressed in transfected cells; host or cells: HEK293
T1 sequence (P55055 with tags, fused parts or gaps INS174Q): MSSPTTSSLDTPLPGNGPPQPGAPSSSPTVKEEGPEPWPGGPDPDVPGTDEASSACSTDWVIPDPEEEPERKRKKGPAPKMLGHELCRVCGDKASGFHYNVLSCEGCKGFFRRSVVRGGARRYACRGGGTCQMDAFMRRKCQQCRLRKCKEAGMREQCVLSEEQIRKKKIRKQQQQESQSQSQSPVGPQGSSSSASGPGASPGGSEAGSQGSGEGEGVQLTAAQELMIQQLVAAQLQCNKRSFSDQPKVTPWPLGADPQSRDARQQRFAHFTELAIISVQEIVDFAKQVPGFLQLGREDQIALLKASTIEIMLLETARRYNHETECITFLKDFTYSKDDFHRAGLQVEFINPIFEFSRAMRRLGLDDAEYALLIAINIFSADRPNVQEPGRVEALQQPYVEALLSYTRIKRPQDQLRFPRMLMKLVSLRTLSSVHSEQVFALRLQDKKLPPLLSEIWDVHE
Method in brief: (§1)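 HEK293 cells transiently cotransfected with NFkB-AD fusions of full-length or LBD LXRα/β, GAL4-DBD fusions of SRC1 coactivator or NCoR corepressor domains, GAL4-driven firefly luciferase and Renilla control. Compound added 4 h post-transfection (≤0.2% DMSO), 16 h incubation; firefly and Renilla luminescence read sequentially.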

[1] = biological target: T2, GST-LXRβ ligand-binding domain (Homo sapiens, UniProt P55055, INS174Q); assay: TR-FRETβ activity assay (NCoA3 coactivator peptide recruitment); type: biochemical; settings: 1 μM 24(S)-25-epoxycholesterol as prestimulating agonist; inverse agonist unless *
T2 construct: amino acids 156-461; NP009052; made in house; host or cells: E. coli
T2 sequence (P55055 with tags, fused parts or gaps INS174Q limits assumed): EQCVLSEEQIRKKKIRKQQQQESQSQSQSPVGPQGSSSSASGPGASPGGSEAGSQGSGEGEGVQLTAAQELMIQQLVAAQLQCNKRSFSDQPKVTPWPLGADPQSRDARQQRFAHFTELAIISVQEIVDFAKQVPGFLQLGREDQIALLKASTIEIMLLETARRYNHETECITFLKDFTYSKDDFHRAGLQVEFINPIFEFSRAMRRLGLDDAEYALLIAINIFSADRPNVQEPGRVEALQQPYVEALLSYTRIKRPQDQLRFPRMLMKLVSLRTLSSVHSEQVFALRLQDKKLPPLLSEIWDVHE
Method in brief: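 E. coli-expressed GST-LXRβ LBD (aa 156-461, 76 nM) with biotinylated NCoA3 peptide (400 nM), anti-GST-Tb cryptate donor and streptavidin-XL665 acceptor in 240 mM KCl, BSA, 0.002% Triton X-100. Equilibrated 1 h at 4° C; TR-FRET read at 615/665 nm, triplicates.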

LXRα full length (FL) = biological target: T3, LXRα full length (FL) (Homo sapiens, UniProt Q13133); assay: LXR Gal4 reporter transient transfection assay, mammalian two-hybrid, FL-M2H Gal4α; type: cell-based; settings: HEK293 cells; inverse agonist unless *
T3 construct: the full length (FL) proteins of LXRα (amino acids 1-447); NP005684; expressed in transfected cells; host or cells: HEK293
T3 sequence (Q13133 1-447): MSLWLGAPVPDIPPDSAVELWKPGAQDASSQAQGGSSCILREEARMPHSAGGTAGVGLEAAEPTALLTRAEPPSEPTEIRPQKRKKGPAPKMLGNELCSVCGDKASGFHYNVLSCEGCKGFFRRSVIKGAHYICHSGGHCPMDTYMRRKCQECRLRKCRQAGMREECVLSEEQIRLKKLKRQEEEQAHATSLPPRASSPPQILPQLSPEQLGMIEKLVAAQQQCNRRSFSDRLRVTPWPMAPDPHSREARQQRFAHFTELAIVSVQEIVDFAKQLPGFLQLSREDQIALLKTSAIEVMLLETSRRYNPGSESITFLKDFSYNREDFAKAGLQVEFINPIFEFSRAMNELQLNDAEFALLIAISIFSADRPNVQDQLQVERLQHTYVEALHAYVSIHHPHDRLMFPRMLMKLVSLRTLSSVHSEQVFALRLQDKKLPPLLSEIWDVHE
Method in brief: as §1

SMILES	EC50 (LXRβ full length (FL))	EC50 [1]	EC50 (LXRα full length (FL))	FRETβ [1]
Cc1ccc2ccc(C#N)cc2c1CN(Cc1ccc(-c2cccc(C(C)(C)C(=O)O)c2)cc1)Cc1ccc(C(F)(F)F)o1 [27/27]	< 100 nM	100 to 1000 nM	< 100 nM	
Cc1ccc2ccccc2c1C(=O)N(CCc1cccc(Br)c1)Cc1ccc(-c2cccc(C(C)(C)C(=O)O)c2)cc1 [27/30]	< 100 nM	1000 to 10000 nM	100 to 1000 nM	
CC(C)(C(=O)O)c1cccc(-c2ccc(CN(Cc3ccc(C(F)(F)F)o3)C(=O)c3c4ccccc4nc4ccccc34)cc2)c1 [27/31]	< 100 nM	< 100 nM	< 100 nM	
CCc1cc(C)c(CN(Cc2ccc(-c3cccc(C(C)(C)C(=O)O)c3)cc2)Cc2ccc(C(F)(F)F)o2)c(C)c1 [27/32]	< 100 nM	< 100 nM	< 100 nM	
Cc1cc(C)c(CN(Cc2ccc(-c3cccc(C(C)(C)C(=O)O)c3)cc2)Cc2ccc(C(F)(F)F)o2)c2c1CCC2 [27/33]	< 100 nM	100 to 1000 nM	< 100 nM	
Cc1cc(C)c(CN(Cc2ccc(-c3cccc(S(=O)(=O)CC(=O)O)c3)cc2)Cc2ccc(C(F)(F)F)o2)c(C)c1C [27/34]	100 to 1000 nM	1000 to 10000 nM	1000 to 10000 nM	
CCc1cc(C)cc(C)c1CN(Cc1ccc(-c2cccc(S(=O)(=O)CC(=O)O)c2)cc1)Cc1ccc(C(F)(F)F)o1 [27/35]	100 to 1000 nM	1000 to 10000 nM	1000 to 10000 nM	
Cc1ccc2ccccc2c1C(=O)N(Cc1ccc(-c2cncc(C(C)(C)C(=O)O)c2)cc1)Cc1ccc(C(F)(F)F)o1 [27/37]	< 100 nM	100 to 1000 nM	100 to 1000 nM	
CC(C)(C(=O)O)c1cccc(-c2ccc(CN(Cc3ccc(C(F)(F)F)o3)C(C)(C)c3cccc4ccccc34)cc2)c1 [27/39]	< 100 nM	< 100 nM	100 to 1000 nM	
O=C(O)CS(=O)(=O)c1cccc(-c2ccc(CN(Cc3ccc(C(F)(F)F)o3)C(=O)c3cccc4ccccc34)cc2)c1 [27/41]	1000 to 10000 nM	1000 to 10000 nM	1000 to 10000 nM	
O=C(O)CS(=O)(=O)c1cccc(-c2ccc(CN(Cc3ccc(C(F)(F)F)o3)C(=O)c3c(OC(F)F)ccc4ccccc34)cc2)c1 [27/42]	100 to 1000 nM	100 to 1000 nM	1000 to 10000 nM	
Cc1ccc2c(F)cccc2c1CN(Cc1ccc(-c2cccc(C(C)(C)C(=O)O)c2)cc1)Cc1ccc(C(F)(F)F)o1 [27/44]	< 100 nM	100 to 1000 nM	< 100 nM	
Cc1cc(C)c([N+](=O)[O-])c(C)c1C(=O)N(Cc1ccc(-c2cccc(C(C)(C)C(=O)O)c2)cc1)Cc1ccc(C(F)(F)F)o1 [27/46]	< 100 nM	< 100 nM	< 100 nM	
Cc1cc(Br)cc(C)c1C(=O)N(Cc1ccc(-c2cccc(C(C)(C)C(=O)O)c2)cc1)Cc1ccc(C(F)(F)F)o1 [27/48]	< 100 nM	100 to 1000 nM	< 100 nM	
Cc1cc(F)cc(C)c1C(=O)N(Cc1ccc(-c2cccc(C(C)(C)C(=O)O)c2)cc1)Cc1ccc(C(F)(F)F)o1 [27/49]	< 100 nM	100 to 1000 nM	< 100 nM	
COCc1c(C)cc(C)c(C(=O)N(Cc2ccc(-c3cccc(C(C)(C)C(=O)O)c3)cc2)Cc2ccc(C(F)(F)F)o2)c1C [27/50]	< 100 nM	100 to 1000 nM	< 100 nM	
CC12CC3(C)CC(C)(C1)CC(C(=O)N(Cc1ccc(-c4cccc(C(C)(C)C(=O)O)c4)cc1)Cc1ccc(C(F)(F)F)o1)(C2)C3 [27/51]	100 to 1000 nM		100 to 1000 nM	B*
CCc1ccc2ccccc2c1CN(Cc1ccc(-c2cccc(C(C)(C)C(=O)O)c2)cc1)Cc1ccc(C(F)(F)F)o1 [27/52]	< 100 nM	100 to 1000 nM	< 100 nM	
Cc1ccc2ccc(F)cc2c1C(=O)N(Cc1ccc(-c2cccc(C(C)(C)C(=O)O)c2)cc1)Cc1ccc(C(F)(F)F)o1 [27/53]	< 100 nM	< 100 nM	< 100 nM	
Cc1ccc2nc(C)c(C)c(C(=O)N(Cc3ccc(-c4cccc(C(C)(C)C(=O)O)c4)cc3)Cc3ccc(C(F)(F)F)o3)c2c1 [27/54]	< 100 nM	100 to 1000 nM	< 100 nM	
CC(C)(C(=O)O)c1cccc(-c2ccc(CN(Cc3ccc(C(F)(F)F)o3)C(=O)c3c4c(nc5ccccc35)CCCC4)cc2)c1 [27/55]	< 100 nM	100 to 1000 nM	< 100 nM	
Cc1ccc2ccccc2c1C(=O)N(Cc1ccc(C(F)(F)F)o1)Cc1ccc(-c2cncc(S(=O)(=O)CC(=O)O)c2)cc1Cl [27/58]	100 to 1000 nM	1000 to 10000 nM	100 to 1000 nM	
Cc1ccc2ccccc2c1C(=O)N(Cc1ccc(C(F)(F)F)o1)Cc1ccc(-c2cccc(S(=O)(=O)CC(=O)O)c2)cc1Cl [27/59]	100 to 1000 nM	100 to 1000 nM	100 to 1000 nM	
COc1cc(-c2cncc(S(=O)(=O)CC(=O)O)c2)ccc1CN(Cc1ccc(C(F)(F)F)o1)C(=O)c1c(C)ccc2ccccc12 [27/60]	100 to 1000 nM	1000 to 10000 nM	100 to 1000 nM	
COc1cc(-c2cccc(S(=O)(=O)CC(=O)O)c2)ccc1CN(Cc1ccc(C(F)(F)F)o1)C(=O)c1c(C)ccc2ccccc12 [27/61]	100 to 1000 nM	1000 to 10000 nM	100 to 1000 nM	
Cc1ccc2ccccc2c1C(=O)N(Cc1ccc(C(F)(F)F)o1)Cc1ccc(-c2cncc(S(=O)(=O)CC(=O)O)c2)cc1C(F)(F)F [27/62]	100 to 1000 nM	1000 to 10000 nM	1000 to 10000 nM	
Cc1ccc2ccccc2c1C(=O)N(Cc1ccc(C(F)(F)F)o1)Cc1ccc(-c2cncc(C(C)(C)C(=O)O)c2)cc1OC(F)F [27/64]	< 100 nM	100 to 1000 nM	100 to 1000 nM	
CCc1cc(-c2cncc(C(C)(C)C(=O)O)c2)ccc1CN(Cc1ccc(C(F)(F)F)o1)C(=O)c1c(C)ccc2ccccc12 [27/65]	< 100 nM	100 to 1000 nM	< 100 nM	
COCc1c(C)cc(C)c(CN(Cc2ccc(-c3cccc(C(C)(C)C(=O)O)c3)cc2)Cc2ccc(C(F)(F)F)o2)c1C [27/71]	< 100 nM	100 to 1000 nM	< 100 nM	
Cc1ccc2ccccc2c1CN(Cc1ccc(-c2cccc([C@H](C)C(=O)O)c2)cc1)Cc1ccc(C(F)(F)F)o1 [27/73]	< 100 nM	100 to 1000 nM	< 100 nM	
